The source of these data is ChEMBL document CHEMBL3603818, “Hedgehog inhibitors from Withania somnifera” (Bioorg Med Chem Lett, 2015).

For orientation: IC50 means the concentration needed to halve the response being measured. High values mean weaker potency, low ones greater potency.

Activity calls are given as the source filed them. The calls are words filed in the database; no cut-off is given here. A value given as a limit tells only on which side of the number the result lay.

The nature of assay [1]: Inhibition of hedgehog/GLI1-mediated transcriptional activity in human HaCaT cells after 12 hrs by luciferase assay. The assay is classed as cell-based.
Assay [2] can be described thus: Cytotoxicity against human PANC1 cells after 24 hrs by FMCA. The conditions noted are these: PANC-1, 24 h. The assay is classed as functional, cell-based.
Assay [3] relates to HaCaT. The assay is described as follows: Inhibition of PTCH expression in human HaCaT cells expressing GLI1 at 1.5 uM after 12 hrs by Western blotting. The assay is classed as functional, cell-based. Background: Immunoblotting shows a protein as a band on a membrane.
Assay [4] in a line: Cytotoxicity against mouse C3H10T1/2 cells after 24 hrs by FMCA. The assay is classed as cell-based. The conditions noted are these: C3H 10T1/2, 24 h.
The next assay deals with MCF7. Put plainly: Cytotoxicity against human MCF7 cells after 24 hrs by FMCA. The assay is classed as functional, cell-based. The conditions noted are these: MCF7, 24 h.
In assay [5] the test system is PANC-1. The assay is described as follows: Inhibition of PTCH expression in human PANC1 cells at 1 uM after 12 hrs by Western blotting. The assay is classed as functional, cell-based.
For assay [6], the target named is T1, Zinc finger protein GLI1 (Homo sapiens) (UniProt P08151).
T1 sequence (whole entry): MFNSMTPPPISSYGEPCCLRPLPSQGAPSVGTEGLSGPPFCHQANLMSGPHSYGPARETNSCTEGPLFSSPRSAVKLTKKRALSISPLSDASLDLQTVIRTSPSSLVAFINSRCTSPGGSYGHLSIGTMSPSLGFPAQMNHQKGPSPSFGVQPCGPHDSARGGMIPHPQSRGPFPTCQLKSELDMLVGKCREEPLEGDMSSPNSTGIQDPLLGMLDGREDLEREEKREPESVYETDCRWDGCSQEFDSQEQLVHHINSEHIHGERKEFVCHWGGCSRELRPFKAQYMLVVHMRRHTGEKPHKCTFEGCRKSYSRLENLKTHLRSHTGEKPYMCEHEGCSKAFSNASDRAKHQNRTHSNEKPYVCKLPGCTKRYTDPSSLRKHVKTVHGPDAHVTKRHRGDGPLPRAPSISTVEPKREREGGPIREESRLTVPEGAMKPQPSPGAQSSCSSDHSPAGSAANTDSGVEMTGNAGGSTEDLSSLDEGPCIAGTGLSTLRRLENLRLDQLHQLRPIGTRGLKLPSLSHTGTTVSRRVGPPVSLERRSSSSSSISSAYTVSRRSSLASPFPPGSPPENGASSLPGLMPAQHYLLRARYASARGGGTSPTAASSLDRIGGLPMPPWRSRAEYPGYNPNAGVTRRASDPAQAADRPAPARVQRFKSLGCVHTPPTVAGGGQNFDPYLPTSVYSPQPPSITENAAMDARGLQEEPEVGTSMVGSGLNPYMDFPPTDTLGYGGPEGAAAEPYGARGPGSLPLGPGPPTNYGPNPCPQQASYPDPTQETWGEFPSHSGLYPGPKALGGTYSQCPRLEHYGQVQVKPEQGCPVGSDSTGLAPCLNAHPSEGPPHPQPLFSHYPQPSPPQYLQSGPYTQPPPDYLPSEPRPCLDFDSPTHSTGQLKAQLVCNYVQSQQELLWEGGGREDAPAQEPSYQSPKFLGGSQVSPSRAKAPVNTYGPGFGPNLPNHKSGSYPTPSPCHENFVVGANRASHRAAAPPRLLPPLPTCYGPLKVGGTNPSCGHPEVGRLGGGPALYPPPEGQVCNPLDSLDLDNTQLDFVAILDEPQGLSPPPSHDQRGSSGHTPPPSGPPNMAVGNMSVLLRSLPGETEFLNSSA
Put plainly: Inhibition of GST-GLI1 (unknown origin) interaction with DNA assessed as reduction of protein-DNA complex level at 100 uM after 20 mins by electrophoretic mobility shift assay. On the technique in general: A gel shift assay detects complexes by their altered migration in electrophoresis.

The test system of assay [7] is PANC-1. The assay is described as follows: Inhibition of BCL-2 expression in human PANC1 cells at 1 uM after 12 hrs by Western blotting. The assay is classed as functional, cell-based.
The subject of a further assay is DU-145. The assay is described as follows: Cytotoxicity against human DU145 cells after 24 hrs by FMCA. The assay is classed as functional, cell-based. The conditions noted are these: DU-145, 24 h.
The test system of assay [8] is HaCaT. The assay is described as follows: Inhibition of BCL-2 expression in human HaCaT cells expressing GLI1 at 1.5 uM after 12 hrs by Western blotting. The assay is classed as functional, cell-based.
For assay [9], the system named is PANC-1. Put plainly: Inhibition of PTCH expression in human PANC1 cells at 5 uM after 12 hrs by Western blotting. The assay is classed as functional, cell-based.
Assay [10] relates to PANC-1. Put plainly: Inhibition of BCL-2 expression in human PANC1 cells at 5 uM after 12 hrs by Western blotting. The assay is classed as functional, cell-based.

Take `CC1=C(CO)C(=O)O[C@@H]([C@@H](C)[C@H]2CC[C@H]3[C@@H]4C[C@H]5O[C@]56[C@@H](O)C=CC(=O)[C@]6(C)[C@H]4CC[C@]23C)C1` [WITHAFERIN A]: the concentration for half-maximal inhibition (IC50) in [1] was determined as 0.5 µM; in assay [2] it was 1.6 µM; in [4] it was 4.9 µM; in the assay on MCF7 it was 6.3 µM; with DU-145, 2.5 µM. Moreover, the inhibition result (in the assay with HaCaT [3]; in the assay on PANC-1 [5]; in assay [6]; in the assay with PANC-1 [7]; with HaCaT [8]) was “Active” in each case.
Consider `CC1=C(CO)C(=O)O[C@@H]([C@@H](C)[C@H]2CC[C@H]3[C@@H]4CC=C5[C@@H](O)C=CC(=O)[C@]5(C)[C@H]4CC[C@]23C)C1`, for which the concentration for half-maximal inhibition (IC50) is 1.8 µM in assay [1]; 11.9 µM in [2]; greater than 25 µM in assay [4]; 22.6 µM in the assay on MCF7; 10.6 µM with DU-145.
On the same counts, the results for `CC1=C(CO)C(=O)O[C@@H]([C@@H](C)[C@H]2CC[C@H]3[C@@H]4C[C@H]5O[C@]56[C@@H](O)[C@@H](OS(=O)(=O)O)CC(=O)[C@]6(C)[C@H]4CC[C@]23C)C1` are 2.2 µM, 14.8 µM, 21 µM, 17.9 µM and 21.7 µM.
For the compound `CC1=C(C)C(=O)O[C@@H]([C@@H](C)[C@H]2CC[C@H]3[C@@H]4C[C@H]5O[C@]56[C@@H](O)C=CC(=O)[C@]6(C)[C@H]4CC[C@]23C)C1`, the half-maximal inhibitory concentration (IC50) in [1] stood at 0.6 µM; in assay [2] it was 1.1 µM; in [4] it was 4.1 µM; in the assay with MCF7, 2.8 µM; with DU-145 it was 1.8 µM. Moreover, the inhibition entry with HaCaT [3], in the assay with PANC-1 [9], in the assay on PANC-1 [10] and in the assay with HaCaT [8] was “Active” throughout.
As for `CC1=C(CO)C(=O)O[C@@H]([C@@H](C)[C@H]2CC[C@H]3[C@@H]4C[C@H]5O[C@]56[C@@H](O)CCC(=O)[C@]6(C)[C@H]4CC[C@]23C)C1`, the concentration for half-maximal inhibition (IC50) in assay [1] was 14.8 µM; in assay [2] it was greater than 25 µM; in assay [4] it was greater than 25 µM; in the assay with MCF7 it was greater than 25 µM; in the assay with DU-145, greater than 25 µM. For the same compound, the inhibition entry in assay [6] was “Active”.
Regarding `CO[C@H]1CC(=O)[C@]2(C)[C@H]3CC[C@]4(C)[C@@H]([C@H](C)[C@H]5CC(C)=C(CO)C(=O)O5)CC[C@H]4[C@@H]3C[C@H]3O[C@]32[C@H]1O`, the IC50 (in assay [1]; in assay [2]; in [4]; in the assay on MCF7; in the assay on DU-145) was greater than 25 µM in each case.
